# In patent US20040097577A1 (priority 2001, published 2004):
# Columns and labels:
# [1] = tested on: patients in the age ranging from 6 to 14 years; assay: pilot study, effect of melatonin on sleep latency (sleep logs, CGI), melatonin versus placebo; format: in vivo, human
# Protocol: In a pilot study, nine patients in the age ranging from 6 to 14 years were run through a protocol to determine feasibility. A sample of four sleep logs, illustrating response at each of the protocol was determined. […] Patients tolerated the protocol, and parents were able to reliably complete the sleep logs. Some parents had to be trained to do so over several visits. Parents whose children fell asleep extremely late, could not tolerate staying up to find out when they actually fell asleep, and had to be excluded.
# [2] = tested on: children; settings: cited from earlier work
# [3] = tested on: children, most of whom were neurologically multiply disabled; settings: 2 to 10 mg of oral melatonin at bedtime; cited from earlier work
compound,measurement,setting,value
"COc1ccc2[nH]cc(CCNC(C)=O)c2c1 [melatonin, N-acetyl-5-methoxytryptamine]",CGI data,[1]; melatonin versus placebo,not significant
same,difference in response between the melatonin and placebo,"[1]; nine patients, sleep logs, with sleep hygiene",significant difference in response (p=0.03)
same,adverse effects on long-term use,[2]; children who received melatonin for several years,without adverse effects
same,average onset of sleep after melatonin administration,"[2]; children, 2.5 to 7.5 mg PO once daily before expected bedtime",≤ 1 h
same,adverse side-effects,[3],no adverse side-effects
same,"health, behavioural and social benefits",[3],significant
